Measurements taken from PMC7162861, “Synthesis, cytotoxicity, pharmacokinetic profile, binding with DNA and BSA of new imidazo[1,2-a]pyrazine-benzo[d]imidazol-5-yl hybrids” (Scientific Reports, 2020).

Key:
UO-31 = assay: NCI cytotoxicity screen, Renal Cancer panel; format: cell-based; settings: Homo sapiens, single dose 10 µM, negative = lethal, read-out: Percent growth inhibition
Experimental: (§1) Cytotoxicity was performed at National Cancer Institute (NCI), Bethesda, USA as per their protocols.

RXF 393 = assay: NCI cytotoxicity screen, Renal Cancer panel; format: cell-based; settings: Homo sapiens, single dose 10 µM, negative = lethal, read-out: Percent growth inhibition
Experimental: as §1

A498 = assay: NCI cytotoxicity screen, Renal Cancer panel; format: cell-based; settings: Homo sapiens, single dose 10 µM, negative = lethal, read-out: Percent growth inhibition
Experimental: as §1

SN12C = assay: NCI cytotoxicity screen, Renal Cancer panel; format: cell-based; settings: Homo sapiens, single dose 10 µM, negative = lethal, read-out: Percent growth inhibition
Experimental: as §1

ACHN = assay: NCI cytotoxicity screen, Renal Cancer panel; format: cell-based; settings: Homo sapiens, single dose 10 µM, negative = lethal, read-out: Percent growth inhibition
Experimental: as §1

CAKI-1 = assay: NCI cytotoxicity screen, Renal Cancer panel; format: cell-based; settings: Homo sapiens; CAKI-1; single dose 10 µM; negative = lethal; read-out: Percent growth inhibition
Experimental: as §1

EXVX = assay: NCI cytotoxicity screen, Non-Small Cell Lung Cancer panel; format: cell-based; settings: Homo sapiens; EXVX; single dose 10 µM; negative = lethal; read-out: Percent growth inhibition
Experimental: as §1

HOP-92 = assay: as above; format: cell-based; settings: Homo sapiens, single dose 10 µM, negative = lethal, read-out: Percent growth inhibition
Experimental: as §1

HOP-62 = assay: as above; format: cell-based; settings: Homo sapiens, single dose 10 µM, negative = lethal, read-out: Percent growth inhibition
Experimental: as §1

A549/ATCC = assay: as above; format: cell-based; settings: Homo sapiens; A549/ATCC; single dose 10 µM; negative = lethal; read-out: Percent growth inhibition
Experimental: as §1

NCI-H460 = assay: as above; format: cell-based; settings: Homo sapiens, single dose 10 µM, negative = lethal, read-out: Percent growth inhibition
Experimental: as §1

SK-OV-3 = assay: NCI cytotoxicity screen, Ovarian Cancer panel; format: cell-based; settings: Homo sapiens, single dose 10 µM, negative = lethal, read-out: Percent growth inhibition
Experimental: as §1

OVCAR-8 = assay: NCI cytotoxicity screen, Ovarian Cancer panel; format: cell-based; settings: Homo sapiens, single dose 10 µM, negative = lethal, read-out: Percent growth inhibition
Experimental: as §1

IGROV1 = assay: NCI cytotoxicity screen, Ovarian Cancer panel; format: cell-based; settings: Homo sapiens, IGROV-1, single dose 10 µM, negative = lethal, read-out: Percent growth inhibition
Experimental: as §1

NCI/ADR-RES = assay: NCI cytotoxicity screen, Ovarian Cancer panel; format: cell-based; settings: Homo sapiens, single dose 10 µM, negative = lethal, read-out: Percent growth inhibition
Experimental: as §1

HCC-2998 = assay: NCI cytotoxicity screen, Colon Cancer panel; format: cell-based, human; settings: Homo sapiens; HCC-2998; single dose 10 µM; negative = lethal; read-out: Percent growth inhibition
Experimental: as §1

SW-620 = assay: NCI cytotoxicity screen, Colon Cancer panel; format: cell-based, human; settings: Homo sapiens, single dose 10 µM, negative = lethal, read-out: Percent growth inhibition
Experimental: as §1

KM12 = assay: NCI cytotoxicity screen, Colon Cancer panel; format: cell-based, human; settings: Homo sapiens, single dose 10 µM, negative = lethal, read-out: Percent growth inhibition
Experimental: as §1

M14 = assay: NCI cytotoxicity screen, Melanoma panel; format: cell-based, human; settings: Homo sapiens, single dose 10 µM, negative = lethal, read-out: Percent growth inhibition
Experimental: as §1

UACC-62 = assay: NCI cytotoxicity screen, Melanoma panel; format: cell-based, human; settings: Homo sapiens, single dose 10 µM, negative = lethal, read-out: Percent growth inhibition
Experimental: as §1

LOX IMVI = assay: NCI cytotoxicity screen, Melanoma panel; format: cell-based, human; settings: Homo sapiens, single dose 10 µM, negative = lethal, read-out: Percent growth inhibition
Experimental: as §1

UACC-257 = assay: NCI cytotoxicity screen, Melanoma panel; format: cell-based; settings: Homo sapiens, single dose 10 µM, negative = lethal, read-out: Percent growth inhibition
Experimental: as §1

MDA-MB-435 = assay: NCI cytotoxicity screen, Melanoma panel; format: cell-based; settings: Homo sapiens, MDA-MB-435, read-out: Percent growth inhibition
Experimental: as §1

MALME-3M = assay: NCI cytotoxicity screen, Melanoma panel; format: cell-based; settings: Homo sapiens; MALME-3M; single dose 10 µM; negative = lethal; read-out: Percent growth inhibition
Experimental: as §1

SK-MEL-5 = assay: NCI cytotoxicity screen, Melanoma panel; format: cell-based; settings: Homo sapiens, single dose 10 µM, negative = lethal, read-out: Percent growth inhibition
Experimental: as §1

SK-MEL-28 = assay: NCI cytotoxicity screen, Melanoma panel; format: cell-based; settings: Homo sapiens, single dose 10 µM, negative = lethal, read-out: Percent growth inhibition
Experimental: as §1

SK-MEL-2 = assay: NCI cytotoxicity screen, Melanoma panel; format: cell-based; settings: Homo sapiens, single dose 10 µM, negative = lethal, read-out: Percent growth inhibition
Experimental: as §1

MCF7 = assay: NCI cytotoxicity screen, Breast Cancer panel; format: cell-based; settings: Homo sapiens, single dose 10 µM, negative = lethal, read-out: Percent growth inhibition
Experimental: as §1

T-47D = assay: NCI cytotoxicity screen, Breast Cancer panel; format: cell-based; settings: Homo sapiens, T47D, T-47D; single dose 10 µM; negative = lethal; read-out: Percent growth inhibition
Experimental: as §1

MDA-MB-231/ATCC = assay: NCI cytotoxicity screen, Breast Cancer panel; format: cell-based; settings: Homo sapiens, MDA-MB-231, read-out: Percent growth inhibition
Experimental: as §1

MDA-MB-468 = assay: NCI cytotoxicity screen, Breast Cancer panel; format: cell-based; settings: Homo sapiens, single dose 10 µM, negative = lethal, read-out: Percent growth inhibition
Experimental: as §1

HS 578 T = assay: NCI cytotoxicity screen, Breast Cancer panel; format: cell-based; settings: Homo sapiens; HS 578T; single dose 10 µM; negative = lethal; read-out: Percent growth inhibition
Experimental: as §1

BT-549 = assay: NCI cytotoxicity screen, Breast Cancer panel; format: cell-based; settings: Homo sapiens, single dose 10 µM, negative = lethal, read-out: Percent growth inhibition
Experimental: as §1

786-0 = assay: NCI cytotoxicity screen, Renal Cancer panel; format: cell-based, human; settings: Homo sapiens, single dose 10 µM, negative = lethal, read-out: Percent growth inhibition
Experimental: as §1

TK-10 = assay: NCI cytotoxicity screen, Renal Cancer panel; format: cell-based, human; settings: Homo sapiens, single dose 10 µM, negative = lethal, read-out: Percent growth inhibition
Experimental: as §1

[1] = Experimental log P, shake-flask method; format: physicochemical; settings: n-octanol/phosphate buffer pH 7.4, read-out: Exp. Log P
Experimental: Partition coefficients or experimental log P values of all synthesized compounds (9–23, 30 and 31) were calculated using the shake-flask method. Log P values were determined using n-octanol and phosphate buffer (pH = 7.4) at 10:1 ratio of volumes. Stock solutions (10^−3 M) of compounds were prepared in DMSO. Glass vials were used to make final solutions i.e. stock solution (250 µL) and phosphate buffer (125 µL). To record the absorbance, wavelength was selected based on λmax of the respective compound. Initial absorbance (Ai) for every compound was noted consuming the stock solution in the buffer phase. Now added n-octanol to every vial and shaken well using a mechanical shaker for 50 minutes. To get separation of both phases, glass vials were centrifuged for 35 min. at 2500 rpm. Then, the layer of octanol was separated from glass vial. The final absorbance (Af) of each compound was recorded by using the buffer layer. The values of P for compounds were determined by the following equation (Eq. 8):8 P=Ai−Af/Af×Vw/Vo

HCT-116 = assay: NCI cytotoxicity screen, Colon Cancer panel; format: cell-based; settings: Homo sapiens, single dose 10 µM, negative = lethal, read-out: Percent growth inhibition
Experimental: as §1

COLO 205 = assay: NCI cytotoxicity screen, Colon Cancer panel; format: cell-based; settings: Homo sapiens, single dose 10 µM, negative = lethal, read-out: Percent growth inhibition
Experimental: as §1

HT29 = assay: NCI cytotoxicity screen, Colon Cancer panel; format: cell-based; settings: Homo sapiens, HT-29; HT29; single dose 10 µM; negative = lethal; read-out: Percent growth inhibition
Experimental: as §1

HCT-15 = assay: NCI cytotoxicity screen, Colon Cancer panel; format: cell-based; settings: Homo sapiens, single dose 10 µM, negative = lethal, read-out: Percent growth inhibition
Experimental: as §1

NCI-H226 = assay: NCI cytotoxicity screen, Non-Small Cell Lung Cancer panel; format: cell-based, human; settings: Homo sapiens, single dose 10 µM, negative = lethal, read-out: Percent growth inhibition
Experimental: as §1

NCI-522 = assay: as above; format: cell-based, human; settings: Homo sapiens; NCI-522; single dose 10 µM; negative = lethal; read-out: Percent growth inhibition
Experimental: as §1

NCI-H322M = assay: as above; format: cell-based, human; settings: Homo sapiens, single dose 10 µM, negative = lethal, read-out: Percent growth inhibition
Experimental: as §1

NCI-H23 = assay: as above; format: cell-based, human; settings: Homo sapiens, single dose 10 µM, negative = lethal, read-out: Percent growth inhibition
Experimental: as §1

c1cn2cc(-c3ccsc3)nc(-c3ccc4c(c3)ncn4C3CCCCC3)c2n1 [Compound 14, 8-(1-cyclohexyl-1H-benzo[d]imidazol-5-yl)-6-(thiophen-3-yl)imidazo[1,2-a]pyrazine]
inhibition at 10 µM (UO-31): 23.1% | inhibition at 10 µM (RXF 393): < 1% | inhibition at 10 µM (A498): < 1% | inhibition at 10 µM (SN12C): 6.33% | inhibition at 10 µM (ACHN): 4.32% | inhibition at 10 µM (CAKI-1): < 1% | inhibition at 10 µM (EXVX): < 1% | inhibition at 10 µM (HOP-92): 25% | inhibition at 10 µM (HOP-62): 7.41% | inhibition at 10 µM (A549/ATCC): < 1% | inhibition at 10 µM (NCI-H460): 7.12% | inhibition at 10 µM (SK-OV-3): < 1% | inhibition at 10 µM (OVCAR-8): 6.38% | inhibition at 10 µM (IGROV1): 19.1% | inhibition at 10 µM (NCI/ADR-RES): 4.17% | inhibition at 10 µM (HCC-2998): < 1% | inhibition at 10 µM (SW-620): < 1% | inhibition at 10 µM (KM12): 11.7% | inhibition at 10 µM (M14): 3.43% | inhibition at 10 µM (UACC-62): 18.5% | inhibition at 10 µM (LOX IMVI): 14.5% | inhibition at 10 µM (UACC-257): < 1% | inhibition at 10 µM (MDA-MB-435): 6% | inhibition at 10 µM (MALME-3M): 3.01% | inhibition at 10 µM (SK-MEL-5): 24.8% | inhibition at 10 µM (SK-MEL-28): < 1% | inhibition at 10 µM (SK-MEL-2): 0.58% | inhibition at 10 µM (MCF7): 12% | inhibition at 10 µM (T-47D): > 50% | inhibition at 10 µM (MDA-MB-231/ATCC): 7.65% | inhibition at 10 µM (MDA-MB-468): 0.73% | inhibition at 10 µM (HS 578 T): 6.34% | inhibition at 10 µM (BT-549): 4.68% | inhibition at 10 µM (786-0): < 1% | inhibition at 10 µM (TK-10): < 1% | logP [1]: 1.63 | inhibition at 10 µM (HCT-116): 15.8% | inhibition at 10 µM (COLO 205): < 1% | inhibition at 10 µM (HT29): 9.2% | inhibition at 10 µM (HCT-15): 18.8% | inhibition at 10 µM (NCI-H226): < 1% | inhibition at 10 µM (NCI-522): 10.4% | inhibition at 10 µM (NCI-H322M): 1.19% | inhibition at 10 µM (NCI-H23): 8.6%
